Here are results for one molecule from US9006224B2, “Neuroendocrine tumor treatment” (Novartis AG, priority 2005, dated 2015).

Common to all, as to assay type: cell-based
The test system of one test is A549 line. The experiment in a line: Antiproliferative activity, methylene blue staining, A549 line. Here is the method: (§1) Subsequently, a two-fold dilution series of each compound (an mTOR inhibitor other than Compound A or a known chemotherapeutic agent) is made in separate tubes (starting at 8× the IC50 of each compound) either alone or in paired combinations, and the dilutions are added to the wells.
(§2) The cells are then re-incubated for 3 days. Methylene blue staining is performed on day 4 and the amount of bound dye (proportional to the number of surviving cells that bind the dye) determined. IC50s are subsequently determined using the Calcusyn program, which provides a measure of the interaction, namely the so-called non-exclusive combination index (CI), where: CI˜1=the interaction is nearly additive; 0.85-0.9=slight synergism; <0.85=synergy.

Another test deals with KB-31. Put plainly: Antiproliferative activity, methylene blue staining, KB-31 line. The procedure: as §1, §2
The next test has as its system HCT116. Put plainly: Antiproliferative activity, methylene blue staining, HCT116 line. Here is the method: as §1, §2
In test [1] the test system is A cell line, e.g. A549, KB-31 and HCT116 lines. Put plainly: Antiproliferative activity in combination with other agents (Calcusyn combination index). The settings on record: e.g. with somastatin or a somastatin analogue, 3 days incubation, methylene blue staining. Here is the method: as §1, §2
Test [2] relates to cells which are otherwise resistant to endocrine agent treatment. The experiment in a line: In vitro studies: restoring activity of endocrine agents in resistant cells. From the text: Several studies have implicated aberrant activity of the Akt kinase as a significant mechanism by which breast cancer tumors are unresponsive to endocrine therapy.

Turning to `CO[C@H]1C[C@@H]2CC[C@@H](C)[C@@](O)(O2)C(=O)C(=O)N2CCCC[C@H]2C(=O)O[C@H]([C@H](C)C[C@@H]2CC[C@@H](OCCO)[C@H](OC)C2)CC(=O)[C@H](C)/C=C(\C)[C@@H](O)[C@@H](OC)C(=O)[C@H](C)C[C@H](C)/C=C/C=C/C=C/1C` [Compound A, 40-O-(2-hydroxyethyl)-rapamycin], the values for the IC50 entry in the test on A549 line, in the test on KB-31 and with HCT116 were “low nM range”, “micromolar range” and “micromolar range”, respectively. The “antiproliferative activity in combination with another chemotherapeutic agent” value in test [1] is on record as “interesting antiproliferative activity”. Further, the “restoration of activity of endocrine agents (estrogen inhibitors and/or aromatase inhibitors)” value in test [2] is reported as “able to restore activity of endocrine agents”.
